Results published in patent US8293768B2, “Organic compounds” (Novartis AG, priority 2006, dated 2012).

Row | melting point [°C] | Compound
1 | 217 to 219 | Cc1nc(N2C(=O)CN(c3ccc(F)cc3)C2=O)sc1C(=O)NCc1ccccc1 [Example 2, N-benzyl-2-(3-(4-fluorophenyl)-2,5-dioxoimidazolidin-1-yl)-4-methylthiazole-5-carboxamide]
2 | 197 to 199 | CCOC(=O)c1sc(N2CCNC2=O)nc1C [Example 3, ethyl 4-methyl-2-(2-oxoimidazolidin-1-yl)thiazole-5-carboxylate]
3 | 205 to 208 | COC(=O)c1cnc(N2CCNC2=O)s1 [Example 3.1, methyl 2-(2-oxoimidazolidin-1-yl)thiazole-5-carboxylate]
4 | 185 to 187 | CCOC(=O)c1sc(N2CCNC2=O)nc1C(F)(F)F [Example 3.2, ethyl 2-(2-oxoimidazolidin-1-yl)-4-(trifluoromethyl)thiazole-5-carboxylate]
5 | 122 to 124 | CCOC(=O)c1sc(N2CCN(Cc3ccccc3)C2=O)nc1C [Example 5, ethyl 2-(3-benzyl-2-oxoimidazolidin-1-yl)-4-methylthiazole-5-carboxylate]
6 | 126 to 127 | CCOC(=O)c1sc(N2CCN(Cc3ccc(C(F)(F)F)cc3)C2=O)nc1C [Example 5.2, ethyl 4-methyl-2-(2-oxo-3-(4-(trifluoromethyl)benzyl)imidazolidin-1-yl)thiazole-5-carboxylate]
7 | 141 to 142 | CC(=O)c1sc(N2CCN(Cc3ccc(C(F)(F)F)cc3)C2=O)nc1C [Example 5.10, 1-(5-acetyl-4-methylthiazol-2-yl)-3-(4-(trifluoromethyl)benzyl)imidazolidin-2-one]
8 | 174 to 175 | COC(=O)c1ccc(CN2CCN(c3nc(C)c(C(C)=O)s3)C2=O)cc1 [Example 5.11, methyl 4-((3-(5-acetyl-4-methylthiazol-2-yl)-2-oxoimidazolidin-1-yl)methyl)benzoate]
9 | 157 to 158 | COC(=O)c1ccc(CN2CCN(c3nc(C)cs3)C2=O)cc1 [Example 5.13, methyl 4-((3-(4-methylthiazol-2-yl)-2-oxoimidazolidin-1-yl)methyl)benzoate]
10 | 102 to 103 | Cc1csc(N2CCN(Cc3ccc(C(F)(F)F)cc3)C2=O)n1 [Example 5.14, 1-(4-methylthiazol-2-yl)-3-(4-(trifluoromethyl)benzyl)imidazolidin-2-one]
11 | 122 to 124 | COC(=O)c1cccc(CN2CCN(c3nc(C)c(C(C)=O)s3)C2=O)c1 [Example 5.17, methyl 3-((3-(5-acetyl-4-methylthiazol-2-yl)-2-oxoimidazolidin-1-yl)methyl)benzoate]
12 | 286 to 289 | Cc1nc(N2CCN(c3ccccc3)C2=O)sc1C(=O)O [Example 6, 4-methyl-2-(2-oxo-3-phenylimidazolidin-1-yl)thiazole-5-carboxylic acid]
13 | 248 to 249 | Cc1nc(N2CCN(Cc3ccccc3)C2=O)sc1C(=O)O [Example 6.2, 2-(3-benzyl-2-oxoimidazolidin-1-yl)-4-methylthiazole-5-carboxylic acid]
14 | 195 to 197 | Cc1nc(N2CCN(Cc3ccc(C(F)(F)F)cc3)C2=O)sc1C(=O)O [Example 6.5, 4-methyl-2-(2-oxo-3-(4-(trifluoromethyl)benzyl)imidazolidin-1-yl)thiazole-5-carboxylic acid]
15 | 218 to 221 | Cc1nc(N2CCN(CCCc3ccccc3)C2=O)sc1C(=O)O [Example 6.12, 4-methyl-2-(2-oxo-3-(3-phenylpropyl)imidazolidin-1-yl)thiazole-5-carboxylic acid]
16 | 222 to 224 | Cc1csc(N2CCN(Cc3ccc(C(=O)O)cc3)C2=O)n1 [Example 6.23, 4-((3-(4-methylthiazol-2-yl)-2-oxoimidazolidin-1-yl)methyl)benzoic acid]
17 | 234 to 236 | Cc1nc(N2CCN(c3ccccc3)C2=O)sc1C(=O)NCc1ccccc1 [Example 7, N-benzyl-4-methyl-2-(2-oxo-3-phenylimidazolidin-1-yl)thiazole-5-carboxamide]
18 | 169 to 171 | Cc1nc(N2CCN(Cc3ccccc3)C2=O)sc1C(=O)NCc1ccccc1 [Example 8, N-benzyl-2-(3-benzyl-2-oxoimidazolidin-1-yl)-4-methylthiazole-5-carboxamide]
19 | 169 to 171 | Cc1nc(N2CCN(Cc3ccccc3)C2=O)sc1C(=O)NCc1cccc(F)c1 [Example 8.1, 2-(3-benzyl-2-oxoimidazolidin-1-yl)-N-(3-fluorobenzyl)-4-methylthiazole-5-carboxamide]
20 | 218 to 219 | CCNC(=O)c1sc(N2CCN(Cc3ccc(OC(F)(F)F)cc3)C2=O)nc1C [Example 8.2, N-ethyl-4-methyl-2-(2-oxo-3-(4-(trifluoromethoxy)benzyl)imidazolidin-1-yl)thiazole-5-carboxamide]
21 | 195 to 196 | Cc1nc(N2CCN(Cc3ccc(OC(F)(F)F)cc3)C2=O)sc1C(=O)NCCC1CC1 [Example 8.3, N-(2-cyclopropylethyl)-4-methyl-2-(2-oxo-3-(4-(trifluoromethoxy)benzyl)imidazolidin-1-yl)thiazole-5-carboxamide]
22 | 183 to 184 | Cc1nc(N2CCN(Cc3ccc(F)cc3)C2=O)sc1C(=O)NCCN1CCCC1 [Example 8.4, 2-(3-(4-fluorobenzyl)-2-oxoimidazolidin-1-yl)-4-methyl-N-(2-(pyrrolidin-1-yl)ethyl)thiazole-5-carboxamide]
23 | 173 to 175 | CNC(=O)c1ccc(CN2CCN(c3nc(C)c(C(C)=O)s3)C2=O)cc1 [Example 8.6, 4-((3-(5-acetyl-4-methylthiazol-2-yl)-2-oxoimidazolidin-1-yl)methyl)-N-methylbenzamide]
24 | 206 to 207 | Cc1csc(N2CCN(Cc3ccc(C(=O)Nc4ccc(F)cc4)cc3)C2=O)n1 [Example 8.7, N-(4-fluorophenyl)-4-((3-(4-methylthiazol-2-yl)-2-oxoimidazolidin-1-yl)methyl)benzamide]
25 | 96 to 97 | Cc1csc(N2CCN(Cc3ccc(C(=O)n4nccc4C)cc3)C2=O)n1 [Example 8.8, 1-(4-(5-methyl-1H-pyrazole-1-carbonyl)benzyl)-3-(4-methylthiazol-2-yl)imidazolidin-2-one]
26 | 185 to 186 | Cc1csc(N2CCN(Cc3ccc(C(=O)NCc4ccccc4)cc3)C2=O)n1 [Example 8.9, N-benzyl-4-((3-(4-methylthiazol-2-yl)-2-oxoimidazolidin-1-yl)methyl)benzamide]
27 | 197 to 198 | Cc1csc(NC(=O)c2ccc(CN3CCN(c4nc(C)cs4)C3=O)cc2)n1 [Example 8.10, N-(4-methylthiazol-2-yl)-4-((3-(4-methylthiazol-2-yl)-2-oxoimidazolidin-1-yl)methyl)benzamide]
28 | 184 to 186 | Cc1nc(N2CCN(Cc3ccc(OC(F)(F)F)cc3)C2=O)sc1C(=O)NCC1CC1 [Example 8.12, N-(cyclopropylmethyl)-4-methyl-2-(2-oxo-3-(4-(trifluoromethoxy)benzyl)imidazolidin-1-yl)thiazole-5-carboxamide]
29 | 147 to 148 | Cc1nc(N2CCN(Cc3ccccc3)C2=O)sc1C(=O)NCc1ccc(F)cc1 [Example 9, 2-(3-benzyl-2-oxoimidazolidin-1-yl)-N-(4-fluorobenzyl)-4-methylthiazole-5-carboxamide]
